Assay results reported in the supplement of paper PMC11061612.

Legend:
[1] = system: Caov-4 (Ovarian Carcinoma); assay: Bliss excess, mean over the matrix (fraction); higher = more synergy;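 also: after 72 h of two-drug dosing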
Outline: (§1)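 Cell lines in DMEM/F12 or RPMI with 10% FBS were plated in 1536-well plates, held 24 hours at 37°C, 5% CO2, then given two-drug dose matrices for 72 hours (DMSO typically 0.2%). Viability was read by CellTiter-Glo 2.0 luminescence and scaled as inhibition from 0 (vehicle wells) to 1 (blank wells). Combination Emax is the second-highest inhibition in the matrix; Bliss excess is observed combination effect minus expected EA + EB − EA·EB, EA and EB being single-agent effects.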

[2] = system: KMOE-2 (Acute Myeloid Leukemia); assay: combination Emax (second highest fraction inhibited in the dose matrix, 72 h); higher = more inhibition; extreme values may be limits of the assay
Outline: as §1

[3] = system: BT-549 (Breast Carcinoma); assay: as above
Outline: as §1

[4] = system: D-263MG (Glioblastoma); assay: as above
Outline: as §1

[5] = system: MLMA (Other Blood Carcinomas); assay: as above
Outline: as §1

[6] = system: NCI-H358 (Lung Adenocarcinoma); assay: as above
Outline: as §1

[7] = system: OVCAR-4 (Ovarian Carcinoma); assay: as above
Outline: as §1

[8] = system: OE19 (Esophageal Adenocarcinoma); assay: as above
Outline: as §1

[9] = system: UACC-62 (Melanoma); assay: as above
Outline: as §1

[10] = system: SW13 (Other Solid Carcinomas); assay: as above
Outline: as §1

[11] = system: SCC-15 (Oral Cavity Carcinoma); assay: as above
Outline: as §1

[12] = system: TE-1 (Esophageal Squamous Cell Carcinoma); assay: as above
Outline: as §1

[13] = system: EoL-1-cell (Acute Myeloid Leukemia); assay: as above
Outline: as §1

[14] = system: TK10 (Kidney Carcinoma); assay: as above
Outline: as §1

[15] = system: NCI-H727 (Other Solid Carcinomas); assay: as above
Outline: as §1

[16] = system: Hs-766T (Pancreatic Carcinoma); assay: as above
Outline: as §1

[17] = system: SU8686 (Pancreatic Carcinoma); assay: as above
Outline: as §1

[18] = system: EFM-19 (Breast Carcinoma); assay: as above
Outline: as §1

[19] = system: C-4-I (Cervical Carcinoma); assay: as above
Outline: as §1

[20] = system: AMO-1 (Plasma Cell Myeloma); assay: as above
Outline: as §1

SMILES	Bliss excess [1]	combination Emax [2]	combination Emax [3]	combination Emax [4]	combination Emax [5]	combination Emax [6]	combination Emax [7]	combination Emax [8]	combination Emax [9]	combination Emax [10]	combination Emax [11]	combination Emax [12]	combination Emax [13]	combination Emax [14]	combination Emax [15]	combination Emax [16]	combination Emax [17]	combination Emax [18]	combination Emax [19]	combination Emax [20]
CC(=O)c1c(C)c2cnc(Nc3ccc(N4CCNCC4)cn3)nc2n(C2CCCC2)c1=O [Palbociclib] + CC1(C)CCC(CN2CCN(c3ccc(C(=O)NS(=O)(=O)c4ccc(NCC5CCOCC5)c([N+](=O)[O-])c4)c(Oc4cnc5[nH]ccc5c4)c3)CC2)=C(c2ccc(Cl)cc2)C1 [Venetoclax] (first compound max 10 µM, 7x7, partner max 1 µM)	-0.057	0.215	0.308	0.222	0.683	0.337	0.0611	0.257	0.0969	0.24	0.0783	0.179	0.994	0.3	0.232	0.149	0.0346	0.0695	0.0751	0.273
CC(=O)c1c(C)c2cnc(Nc3ccc(N4CCNCC4)cn3)nc2n(C2CCCC2)c1=O [Palbociclib] + Cc1c2c(nn1C)CSCc1cc(n(C)n1)CSc1cc(c3ccccc3c1)OCCCc1c(C(=O)O)n(C)c3c-2c(Cl)ccc13 [AZD5991] (first compound max 10 µM, 7x7, partner max 1 µM)	-0.0133	0.65	0.455	0.612	0.784	0.363	0.191	0.664	0.588	0.838	0.191	0.194	1	0.353	0.311	0.404	0.0791	0.255	0.896	1
CC(=O)c1c(C)c2cnc(Nc3ccc(N4CCNCC4)cn3)nc2n(C2CCCC2)c1=O [Palbociclib] + Cn1cnc2c(F)c(Nc3ccc(Br)cc3Cl)c(C(=O)NOCCO)cc21 [Selumetinib] (first compound max 10 µM, 7x7, partner max 10 µM)	-0.0247	1	0.226	0.265	0.769	0.524	0.286	0.332	0.764	0.444	0.232	0.383	0.952	0.427	0.636	0.465	0.173	0.162	0.349	0.557
COc1cccc(OCCCN)c1-c1cc(Nc2cnc(C#N)cn2)n[nH]1 [Prexasertib] + C=CCn1c(=O)c2cnc(Nc3ccc(N4CCN(C)CC4)cc3)nc2n1-c1cccc(C(C)(C)O)n1 [AZD1775] (first compound max 1 µM, partner max 1 µM)	0.007	0.992	0.845	0.888	0.963	0.769	0.866	0.943	0.798	0.526	0.638	0.763	0.998	0.661	0.701	0.694	0.531	0.62	0.962	0.99
COc1cccc(OCCCN)c1-c1cc(Nc2cnc(C#N)cn2)n[nH]1 [Prexasertib] + CCc1c2c(nc3ccc(O)cc13)-c1cc3c(c(=O)n1C2)COC(=O)[C@]3(O)CC [SN-38] (first compound max 1 µM, 7x7, partner max 0.3 µM)	-0.0332	0.999	0.864	0.955	0.948	0.897	0.9	0.956	0.817	0.996	0.802	0.902	0.996	0.691	0.696	0.655	0.448	0.841	0.999	0.968
COc1cccc(OCCCN)c1-c1cc(Nc2cnc(C#N)cn2)n[nH]1 [Prexasertib] + CN(C)CCCOc1ccc(-c2ccc3ncc4c(c3c2)n(C2CCOCC2)c(=O)n4C)cn1 [AZD0156] (first compound max 1 µM, 7x7, partner max 1 µM)	0.0056	0.945	0.707	0.915	0.957	0.775	0.771	0.889	0.828	0.322	0.617	0.71	0.998	0.727	0.717	0.665	0.525	0.28	0.915	0.98
COc1cccc(OCCCN)c1-c1cc(Nc2cnc(C#N)cn2)n[nH]1 [Prexasertib] + C[C@@H]1COCCN1C2=NC(=NC(=C2)C3(CC3)[S@](=N)(=O)C)C4=C5C=CNC5=NC=C4 [AZD6738] (first compound max 1 µM, 7x7, partner max 10 µM)	-0.0123	0.948	0.698	0.797	0.954	0.825	0.832	0.935	0.697	0.519	0.663	0.641	0.996	0.686	0.72	0.658	0.531	0.26	0.965	0.965
COc1cccc(OCCCN)c1-c1cc(Nc2cnc(C#N)cn2)n[nH]1 [Prexasertib] + Cc1cc2ncnn2cc1Nc1ncc2c(n1)n(C1CCOCC1)c(=O)n2C [AZD7648] (first compound max 1 µM, 7x7, partner max 10 µM)	-0.0361	0.945	0.672	0.835	0.96	0.769	0.777	0.897	0.823	0.492	0.549	0.694	0.998	0.738	0.695	0.709	0.528	0.349	0.956	0.986
COc1cccc(OCCCN)c1-c1cc(Nc2cnc(C#N)cn2)n[nH]1 [Prexasertib] + O=C(c1cc(Cc2n[nH]c(=O)c3ccccc23)ccc1F)N1CCN(C(=O)C2CC2)CC1 [Olaparib] (first compound max 1 µM, 7x7, partner max 10 µM)	-0.0542	0.974	0.654	0.762	0.954	0.85	0.743	0.648	0.743	0.39	0.482	0.621	1	0.625	0.389	0.658	0.527	0.354	0.929	0.982
CCc1c2c(nc3ccc(O)cc13)-c1cc3c(c(=O)n1C2)COC(=O)[C@]3(O)CC [SN-38] + CN(C)CCCOc1ccc(-c2ccc3ncc4c(c3c2)n(C2CCOCC2)c(=O)n4C)cn1 [AZD0156] (first compound max 0.3 µM, 7x7, partner max 1 µM)	0.0268	0.945	0.423	0.722	0.877	0.722	0.187	0.618	0.891	0.988	0.709	0.522	0.995	0.409	0.297	0.39	0.497	0.482	0.932	0.9
Cn1cnc2c(F)c(Nc3ccc(Br)cc3Cl)c(C(=O)NOCCO)cc21 [Selumetinib] + C=CCn1c(=O)c2cnc(Nc3ccc(N4CCN(C)CC4)cc3)nc2n1-c1cccc(C(C)(C)O)n1 [AZD1775] (first compound max 10 µM, partner max 1 µM)	-0.0097	1	0.715	0.218	0.769	0.621	0.546	0.28	0.827	0.361	0.3	0.638	1	0.478	0.614	0.487	0.126	0.321	0.929	0.917
Cn1cnc2c(F)c(Nc3ccc(Br)cc3Cl)c(C(=O)NOCCO)cc21 [Selumetinib] + CC(C)n1c(=O)n(C)c2cnc3cc(F)c(-c4ccc(OCCCN5CCCCC5)nc4)cc3c21 [AZD1390] (first compound max 10 µM, 7x7, partner max 0.3 µM)	-0.0382	0.976	0.117	0.204	0.23	0.444	0.126	0.128	0.787	0.401	0.176	0.384	0.762	0.325	0.614	0.475	0.163	0.235	0.26	0.364
Cn1cnc2c(F)c(Nc3ccc(Br)cc3Cl)c(C(=O)NOCCO)cc21 [Selumetinib] + CCN(CCO)CCCOc1ccc2c(Nc3cc(CC(=O)Nc4cccc(F)c4)[nH]n3)ncnc2c1 [AZD2811] (first compound max 10 µM, 7x7, partner max 1 µM)	-0.0643	0.999	0.3	0.284	0.286	0.499	0.268	0.796	0.815	0.615	0.36	0.49	1	0.327	0.622	0.515	0.142	0.219	0.66	0.481
